Data set [1] addresses OASS. Particulars: cited from earlier work.
The target of data set [2] is T1, StOASS-A (Salmonella typhimurium, UniProt P0A1E3).
T1 construct: His6 (N, cleaved yes); made in house; host or cells: E. coli Rosetta (DE3)
Kind of data set: Fluorimetric binding titration (PLP emission), StOASS-A. Also noted: species or system Salmonella enterica serovar Typhimurium. Particulars: for LE (OASS-A): LE = (1.37/HA). pIC50, HA = heavy atoms; for Kd: 1 µM StOASS-A, 100 mM Hepes pH 7, 20 °C, read-out: Kd OASS-A. Here is the method: (§1) The genes cysK and cysM encoding STOASS-A and STOASS-B, respectively, were subcloned from pET16b[34] to pET19m in order to replace the restriction site for Factor Xa with the one for TEV protease. pET19m-STcysK and pET19m-STcysM were transformed in E. coli Rosetta^TM (DE3) competent cells for protein expression. Protein expression and purification was performed following published protocols[34] with some modifications. Briefly, protein expression was induced on bacterial growth in exponential phase by IPTG for 4 and 5 h for OASS-B and OASS-A, respectively. Cells were lysed by pulsed sonication in 50 mM NaP, 300 mM NaCl, pH 7, with the addition of 1 mg/mL lysozyme. Purification was performed by immobilized metal affinity column (IMAC) on Co^2+ ions (Talon™, Clontech Laboratories, Inc., Mountain View, CA). Proteins were eluted with 250 mM (His6-OASS-A) or 600 mM (His6-OASS-B) imidazol. His-tag was removed from His6-OASS-A by treatment with TEV protease during O/N dialysis in 10 mM HEPES pH 8. His-tag was removed from His6-OASS-B by treatment with TEV protease in 20 mM HEPES, 100 mM NaCl, 1 mM TCEP pH 8 for 24 h at 5 °C. […] OASS-A was stored in 10 mM HEPES pH 8 and OASS-B in 20 mM HEPES, 100 mM NaCl, 1 mM TCEP pH 8.
(§2) The concentration of bisulfide was saturating (600 μM), whereas the concentration of OAS was set at Km to increase the sensitivity. The dissociation constant of selected compounds for StOASS-A and OASS-B was measured by a fluorimetric method published elsewhere[23]^,[24]. Briefly, a solution containing 1 µM StOASS-A in 100 mM Hepes pH 7 was titrated with increasing concentrations of compound at 20 °C. The fluorescence emission intensity of the PLP cofactor at 505 nm upon excitation at 412 nm was collected after each addition, subtracted by the blank and normalized by the protein dilution. The dependence of the emission intensity at 505 nm on the concentration of the compound was fitted to a binding isotherm[23] to calculate the dissociation constant of the protein-ligand complex.

The target in data set [3] is T2, OASS-B (Salmonella typhimurium, UniProt P29848).
T2 construct: His6 (N, cleaved yes); made in house; host or cells: E. coli Rosetta (DE3)
T2 sequence (P29848 1-303): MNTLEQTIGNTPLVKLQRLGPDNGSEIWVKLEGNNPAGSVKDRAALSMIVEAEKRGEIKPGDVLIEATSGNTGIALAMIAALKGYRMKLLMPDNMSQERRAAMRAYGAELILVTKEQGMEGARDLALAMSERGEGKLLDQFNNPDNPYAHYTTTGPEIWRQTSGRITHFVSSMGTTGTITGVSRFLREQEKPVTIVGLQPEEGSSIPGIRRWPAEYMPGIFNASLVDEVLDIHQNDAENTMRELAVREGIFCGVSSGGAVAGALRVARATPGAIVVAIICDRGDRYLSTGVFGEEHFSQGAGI
Kind of data set: biochemical. Particulars: for LE (OASS-B): LE = (1.37/HA). pIC50, HA = heavy atoms. It counts as binding. How it is done: as §1, §2

The subject of data set [4] is Salmonella. Kind of data set: Activity against Salmonella in vitro. It counts as cell-based.
The subject of data set [5] is cell envelope of Gram-negative bacteria. As to conditions: not told.
Data set [6] has as its target T2, OASS-B. More on the design: method as in PMID 26894308. As to conditions: previously reported reference compound 2; cited from earlier work.
Data set [7] concerns the target T3, OASS-A (Salmonella typhimurium, UniProt P0A1E3).
T3 construct: His6 (N, cleaved yes); made in house; host or cells: E. coli Rosetta (DE3)
Kind of data set: 96-well activity assay (cysteine-ninhydrin), OASS-A. It counts as biochemical, Salmonella enterica serovar Typhimurium. As to conditions: bisulfide 600 µM, OAS at Km, two replicates. How it is done:
as §1, §2

Data set [8] addresses T2, OASS-B. Kind of data set: 96-well activity assay (cysteine-ninhydrin), OASS-B. As to conditions: for % inhibition OASS-B: compound 1 µM, bisulfide 600 µM, OAS at Km, two replicates, ns = Not Significant; for inhibition at 1000 µM: read-out: % inhibition OASS-B. It counts as biochemical. How it is done: as §1, §2
Where [9] appears, read: compound 1 µM, ns = Not Significant.
Setting [10] is: read-out: % inhibition OASS-A, compound 1 mM.
[11] abbreviates: compound 1 mM, read-out: % inhibition OASS-A.

SMILES strings stand for the structures. Like-named read-outs stand apart in the source and are kept apart here. Some results are limits rather than exact numbers.

T1 sequence (P0A1E3 whole entry): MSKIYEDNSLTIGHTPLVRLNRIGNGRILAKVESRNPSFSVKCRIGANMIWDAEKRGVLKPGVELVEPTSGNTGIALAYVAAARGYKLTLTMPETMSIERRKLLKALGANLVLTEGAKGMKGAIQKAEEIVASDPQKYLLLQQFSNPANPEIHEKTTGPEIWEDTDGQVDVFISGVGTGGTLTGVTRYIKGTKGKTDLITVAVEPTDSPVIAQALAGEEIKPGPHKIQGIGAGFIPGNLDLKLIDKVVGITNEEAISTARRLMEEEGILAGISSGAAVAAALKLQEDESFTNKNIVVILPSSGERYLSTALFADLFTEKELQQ
T3 sequence (P0A1E3 whole entry): as above

With `C/C=C/[C@@H]1C[C@H]1C(=O)O` (racemic) [Compound 1, (±)-trans-2-[(1E)-prop-1-en-1-yl]cyclopropanecarboxylic acid], the equilibrium dissociation constant (Kd) in data set [1] (read-out: Kd) is 1.46 µM.

`Cc1ccc(C[C@@]2(C(=O)O)C[C@H]2c2ccccc2)cc1` [Compound 2, (1S,2S)-1–(4-methylbenzyl)-2-phenylcyclopropanecarboxylic acid]: the “LE (OASS-A)” value in data set [2] turned out to be 0.52 kcal/mol/HA. The “LE (OASS-B)” value in data set [3] is reported as 0.50 kcal/mol/HA. Moreover, the “activity when tested against Salmonella in vitro” value in data set [4] was “did not show any activity”. Moreover, the “permeability through the cell envelope” value in data set [5] is given as “poor permeability”. Also, the dissociation constant (Kd) in data set [6] was 0.049 µM; in data set [1] (read-out: Kd-OASS), 0.028 µM.

With `Cc1ccc(-n2nccc2C(=O)O)cc1` [Compound 4a, 1-(p-tolyl)-1H-pyrazole-5-carboxylic acid], the “% inhibition OASS-A” value in data set [7] (setting [9]) is reported as “ns^b”; in data set [7] (compound 1 mM) it was 45 ± 3%. The inhibition at 1000 µM in data set [7] (setting [10]) was 50%; in data set [8] it was 65 ± 2%. Further, the “% inhibition OASS-B” value in data set [8] is reported as “ns”.

Take `O=C(O)c1ccnn1-c1ccccc1` [Compound 4b, 1-phenyl-1H-pyrazole-5-carboxylic acid]: the “% inhibition OASS-A” value in data set [7] (setting [9]) is “ns”. Also, the inhibition at 1000 µM in data set [7] (setting [11]) was 66 ± 1%. In data set [8], the inhibition at 1 µM was found to be 11 ± 3% and the inhibition at 1000 µM worked out at 65 ± 1%.

`O=C(O)c1ccn[nH]1` [Compound 4c, 1H-pyrazole-5-carboxylic acid] showed an inhibition at 1 µM in data set [7] (setting [9]) of 9 ± 7%. Also, the “% inhibition OASS-A” value in data set [7] (compound 1 mM) stood at 94 ± 1%. Further, the inhibition at 1000 µM in data set [7] (setting [11]) was above 90%. In data set [8], the “% inhibition OASS-B” value was “ns” and the inhibition at 1000 µM is 82 ± 1%. Moreover, in data set [2], the Kd stood at 122 ± 5 µM and the “LE (OASS-A)” value is 0.67 kcal/mol/HA. Moreover, in data set [3], the Kd is 272 ± 10 µM and the “LE (OASS-B)” value was 0.61 kcal/mol/HA.

Consider `O=C(O)c1ccnn1-c1ccc(Cl)cc1` [Compound 4d, 1–(4-chlorophenyl)-1H-pyrazole-5-carboxylic acid], for which, in data set [7] (setting [9]), the “% inhibition OASS-A” value is “ns”. The inhibition at 1000 µM in data set [7] (setting [11]) turned out to be 60 ± 2%. Further, in data set [8], the inhibition at 1 µM was 9 ± 6% and the inhibition at 1000 µM was determined as 56 ± 1%.

Turning to `O=C(O)c1ccnn1-c1ccc(Br)cc1` [Compound 4e, 1–(4-bromophenyl)-1H-pyrazole-5-carboxylic acid], the “% inhibition OASS-A” value in data set [7] (setting [9]) is “ns”; in data set [7] (compound 1 mM), 84 ± 1%. For the same compound, the inhibition at 1000 µM in data set [7] (setting [10]) was above 80%; in data set [8], 58 ± 2%. Also, the “% inhibition OASS-B” value in data set [8] is listed as “ns”.

`CC(C)(C)c1ccc(-n2nccc2C(=O)O)cc1` [Compound 4f, 1–(4-(tert-butyl)phenyl)-1H-pyrazole-5-carboxylic acid]: the “% inhibition OASS-A” value in data set [7] (setting [9]) is listed as “ns”. Besides, in data set [7] (setting [11]), the inhibition at 1000 µM stood at 47 ± 1%. In addition, in data set [8], the “% inhibition OASS-B” value is on record as “ns” and the inhibition at 1000 µM amounted to 52 ± 5%.

`O=C(O)c1ccnn1-c1ccc(F)cc1` [Compound 4g, 1–(4-fluorophenyl)-1H-pyrazole-5-carboxylic acid]: the inhibition at 1 µM in data set [7] (setting [9]) came to 8 ± 1%; in data set [8], 14 ± 2%. Further, the inhibition at 1000 µM in data set [7] (setting [11]) was determined as 95 ± 1%; in data set [8] it was 62 ± 1%.

As for `O=C(O)c1ccnn1C1CCCCC1` [Compound 4h, 1-cyclohexyl-1H-pyrazole-5-carboxylic acid], the “% inhibition OASS-A” value in data set [7] (setting [9]) is recorded as “ns”. Besides, in data set [7] (setting [11]), the inhibition at 1000 µM was determined as 57 ± 1%. Besides, in data set [8], the “% inhibition OASS-B” value is on record as “ns” and the inhibition at 1000 µM came out at 30 ± 1%.

On to `O=C(O)c1ccn(-c2ccc(Cl)cc2)n1` [Compound 5d, 1–(4-chlorophenyl)-1H-pyrazole-3-carboxylic acid], for which the “% inhibition OASS-A” value in data set [7] (setting [9]) is “ns”. Also, the inhibition at 1000 µM in data set [7] (setting [11]) was found to be 63 ± 1%. Also, in data set [8], the inhibition at 1 µM came out at 15 ± 2% and the inhibition at 1000 µM stood at 63 ± 1%.

In the case of `O=C(O)c1ccn(-c2ccc(Br)cc2)n1` [Compound 5e, 1–(4-bromophenyl)-1H-pyrazole-3-carboxylic acid], the “% inhibition OASS-A” value in data set [7] (setting [9]) is recorded as “ns”. In data set [7] (setting [11]), the inhibition at 1000 µM turned out to be 62 ± 1%. In data set [8], the “% inhibition OASS-B” value is listed as “ns” and the inhibition at 1000 µM came out at 35 ± 2%.

`CC(C)(C)c1ccc(-n2ccc(C(=O)O)n2)cc1` [Compound 5f, 1–(4-(tert-butyl)phenyl)-1H-pyrazole-3-carboxylic acid]: the “% inhibition OASS-A” value in data set [7] (setting [9]) is listed as “ns”. For the same compound, the inhibition at 1000 µM in data set [7] (setting [11]) was found to be 81 ± 1%; in data set [8] it was 82 ± 1%. Further, the inhibition at 1 µM in data set [8] came out at 11 ± 6%.

For `O=C(O)c1ccn(-c2ccc(F)cc2)n1` [Compound 5g, 1–(4-fluorophenyl)-1H-pyrazole-3-carboxylic acid], in data set [7] (setting [9]), the “% inhibition OASS-A” value is on record as “ns”. Moreover, the inhibition at 1000 µM in data set [7] (setting [11]) was 73 ± 1%; in data set [8] it was 36 ± 3%. Further, the “% inhibition OASS-B” value in data set [8] was “ns”.

On to `O=C(O)c1ccn(C2CCCCC2)n1` [Compound 5h, 1-cyclohexyl-1H-pyrazole-3-carboxylic acid], for which the “% inhibition OASS-A” value in data set [7] (setting [9]) is listed as “ns”. In addition, the inhibition at 1000 µM in data set [7] (setting [11]) was determined as 79 ± 1%. Moreover, in data set [8], the “% inhibition OASS-B” value is “ns” and the inhibition at 1000 µM was determined as 43 ± 3%.

On to `O=C(O)c1ccc[nH]1` [Compound 14, 1H-pyrrole-2-carboxylic acid], for which, in data set [2], the equilibrium dissociation constant (Kd) turned out to be 59 ± 11 µM and the “LE (OASS-A)” value is given as 0.72 kcal/mol/HA. Besides, in data set [3], the Kd was found to be 465 ± 50 µM and the “LE (OASS-B)” value was 0.60 kcal/mol/HA.

For `O=C(O)c1nccs1` [Compound 16, thiazole-2-carboxylic acid], in data set [2], the dissociation constant (Kd) was 52 ± 6 µM and the “LE (OASS-A)” value worked out at 0.74 kcal/mol/HA. Besides, in data set [3], the dissociation constant Kd stood at 338 ± 14 µM and the “LE (OASS-B)” value amounted to 0.60 kcal/mol/HA.

The term Kd denotes the free concentration of one partner at which half of the binding sites on the other are occupied at equilibrium, for simple one-to-one binding. By inhibition is commonly meant the share of the control response that was lost under treatment.

Values taken from publication PMC6147075, “Discovery of novel fragments inhibiting O-acetylserine sulphhydrylase by combining scaffold hopping and ligand–based drug design” (Journal of Enzyme Inhibition and Medicinal Chemistry, 2018).
